This is an account of results in PMC7425896, “Polypeptides derived from α-Synuclein binding partners to prevent α-Synuclein fibrils interaction with and take-up by cells” (PLoS ONE, 2020).

No end group written: not given here.

The test system of series [1] is Neuro-2a cells. In words: Internalization (take-up) of αSyn-Alexa488 fibrils by Neuro-2a cells, 96-well plate assay with Trypan blue quenching. The series is classed as cell-based, Murine. Conditions: Trypan blue quench; for effect of endocytosis inhibitors on αSyn fibrils take-up by Neuro-2a cells: cells exposed 1 hour to chlorpromazine 0–10 μg/ml or EIPA 0–50 μM before αSyn-Alexa488 fibrils 0.5 μM, 4 hours, 5 wells. The protocol: The uptake of Alexa488-labeled αSyn fibrils (0.5 μM equivalent monomer concentration) pre-incubated or not for 30 min at 37°C in DMEM with the ligands (Hsc70, peptides or Surfen) at different concentrations to Neuro-2A cells was also assessed using a 96-well plate assay. The cells cultured on 96-wells plates were incubated with the fibrils, preincubated or not with the ligands for 30 min at 37°C in DMEM, in 5 independent wells. After 4 hours the media was removed and Hoechst (Sigma-Aldrich) diluted at 0.2 μg/ml in serum-free, phenol red-free DMEM was added for 30 min. The cells were washed twice with serum-free, phenol red-free DMEM and 0.1% Trypan Blue (Sigma-Aldrich) was added to quench the fluorescence of plasma membrane-bound Alexa488-labeled αSyn fibrils. For each wells Alexa488 and Hoechst fluorescences were recorded on a Clariostar microplate reader (BMG LABTECH GmbH, Germany).
To assess to role of endocytosis in αSyn fibrils internalization, Neuro-2a cells cultured on 96-wells plates were first incubated with increasing concentrations of chlorpromazine or l’5-N-ethyl-isopropyl-amiloride (EIPA). After 1 hour Alexa488-labeled αSyn fibrils (0.5 μM equivalent monomer concentration) was added. The experiment was then performed as above.

Series [2] in a line: Secondary structure content by far-UV circular dichroism. As to conditions: far-UV CD, 20°C, deconvoluted with Dichroweb. The series is classed as physicochemical. The protocol: Far-UV CD spectra were recorded at 20°C using a JASCO J-810 dichrograph equipped with a thermostated cell holder using a 0.01-cm path length quartz cuvette. Each spectrum was the average of 10 acquisitions recorded in the 260–195 nm range with 0.5-nm steps, a bandwidth of 2 nm, and at a speed of 50 nm/min. All spectra were buffer corrected. The spectra were deconvoluted with the Dichroweb software.
In general terms: CD spectra are sensitive to the conformation of chiral molecules.

The target of the next series is T1, αSyn fibrils (Homo sapiens, UniProt P37840).
T1 construct: made in house
In words: Binding of peptides and Surfen to preformed αSyn fibrils, sedimentation and reversed phase chromatography. Conditions: αSyn fibrils 100 μM; for Bound peptides / Bound peptides (%) / binding to αSyn fibrils (in words): ligand 200 μM, 1h RT, PBS; for Bound peptides / Bound peptides (%): pellet 20,000g, C18 reversed phase chromatography, absorbance 215 nm (peptides) or 260 nm (Surfen); for binding to αSyn fibrils (in words) / Kd: sedimentation, reversed phase chromatography; for Kd: peptide 0–200 μM. The procedure: Hsc70-derived peptides, the […] peptide or the Surfen molecule (0 or 200 μM) were incubated with or without αSyn fibrils (100 μM) for 1h at RT in PBS. The samples were centrifuged for 30 min in a […] tabletop centrifuge (Eppendorf) at 20,000g and 20°C. The pellets were first washed by 100 μL of 0.1% TFA and then dissolved for 30 min in 30 μL of pure TFA. After TFA evaporation, the samples were resuspended in 0.1% TFA and stored at -20°C. The composition of each sample was assessed by phase reverse chromatography on a C18 column (Jupiter C18 300A from Phenomenex, Torrance, CA, USA). The solvant composition was 0.1% TFA for solvent A and 80% acetonitrile, 0.09% TFA for solvent B, and the flow was set at 200 μl/min. The column was equilibrated in 5% B. The peptides were eluted by a gradient from 5% to 80% of solvent B. The amount of αSyn-associated ligand present in each sample was determined by comparing their respective absorbance at 215 nm (peptides) or 260 nm (Surfen) to the absorbance of a known amount of the same ligand. For KD measurements the same experiment was performed using a range of peptide concentrations (0-200 μM).

In another series the test system is monomeric αSyn. Briefly: Monomeric αSyn assembly into fibrils monitored by Thioflavin T binding. It counts as biochemical, human. Conditions: soluble αSyn 50 μM, peptide 50 μM (equimolar), PBS, 37°C, 600 rpm, 4 independent experiments. The procedure:
αSyn (50 μM monomer concentration) was incubated in the absence or in the presence of peptides (50 μM) in PBS at 37°C under continuous shaking in an Eppendorf Thermomixer set at 600 rpm. Aliquots (10 μL) were withdrawn at different time intervals from the assembly reaction and mixed to a Thioflavin T solution (10 μM; 400 μL). Thioflavin T fluorescence was recorded with a Cary Eclipse spectrofluorimeter (Varian Medical Systems Inc.) using excitation and emission wavelengths set at 440 and 480 nm, respectively. The nature of the fibrils obtained at the end of the aggregation reaction was assessed by electron microscopy as described above. The proportion of αSyn assembled into fibrils was assessed by ultracentifugation in a TL100 tabletop centrifuge (Beckman) at 50,000g and 20°C for 30 min and analyse of the supernatant and pellet fractions by SDS-PAGE. Following Coomassie staining / destaining the gels were visualized using a ChemiDocTM MP (BioRad). Images were processed and quantified using Image Lab.

Series [3] concerns Neuro-2a cells. In words: Binding of αSyn-Alexa488 fibrils to the plasma membrane of Neuro-2a cells. The series is classed as cell-based, Murine. Conditions: αSyn-Alexa488 fibrils 1 μM pre-incubated with ligand (0–10 μM) in DMEM 30 min 37°C; cells exposed 30 min; % cells with at least 1 fluorescent foci. The procedure: Alexa488-labeled αSyn fibrils (1 μM equivalent monomer concentration) were first incubated for 30 min at 37°C in DMEM without or with the ligands (Hsc70 or the NKApep peptide) at different concentrations. Neuro-2a cells cultured on ibidi-μ-Dishes (ibidi, Martinsried, Germany) were then incubated for 30 min with this mix. Then, the cells were washed and immediately imaged in serum-free, phenol red-free DMEM on a Zeiss Axio Observer Z1 epifluorescence microscope equipped with an Incubator XLmulti S2 RED LS (Carl Zeiss) and an Orca-R2 camera (Hamamatsu) at a 20x magnification. The percentage of cells with bound Alexa488 foci was estimated by randomly counting at least 500 cells in 10–15 fields and the experiments were reproduced independently 3 times. For each field the number of foci was automatically assessed using the software Fiji and an in-house built plugin.

The subject of series [4] is fibrillar αSyn. In words: Sedimentation assay of Hsc70 with fibrillar αSyn, SDS-PAGE of pellet and supernatant. It counts as binding, human. Conditions: Hsc70 10 μM, fibrillar αSyn 100 μM, 1h RT, PBS, 50,000g 30 min. The protocol:
For binding assay, αSyn fibrils (100 μM) alone, Hsc70 alone (10 μM) or αSyn fibrils and Hsc70 (100 and 10 μM, respectively) were incubated for 1h at RT in PBS. Samples were spun for 30 min at 50,000g and 20°C in a TL100 tabletop ultracentrifuge (Beckman) and the proportion of Hsc70 present in the pellet vs the supernatant was analysed by SDS-PAGE.

The subject of series [5] is fibrillar αSyn. As to conditions: sedimentation assay; read-out: dissociation constant of Hsc70 for fibrillar αSyn; cited from earlier work. The procedure:
We previously brought evidence for Hsc70 interaction with fibrillar αSyn using a sedimentation assay. The dissociation constant we measured was 0.1 μM. Here we confirmed the interaction between Hsc70 and fibrillar αSyn using the same sedimentation assay followed by quantitative analysis of the proteins in the pellet and the supernatant fractions by SDS-PAGE (Fig 1A). […] To determine the affinity of Hsc70 for fibrillar αSyn we incubated preform ...

`CN(C)CCCN1c2ccccc2Sc2ccc(Cl)cc21` [chlorpromazine]: the “effect of endocytosis inhibitors on αSyn fibrils take-up by Neuro-2a cells” value in the series on Neuro-2a cells [1] is “inhibited in a dose-dependent manner”.
Regarding LSKEDIERMVQEAEKY [Hsc-1], in series [2], the “Secondary structure composition other” value was determined as 48%, the “Secondary structure composition α-helix” value is 52% and the “Secondary structure composition β-strand” value stood at 0%. At αSyn fibrils, the “Bound peptides” value stood at 1.2 µM, the “Bound peptides (%)” value is 0.6% and the “binding to αSyn fibrils (in words)” value is given as “did not bind”.
In the case of GKFELTGIPPAPRGVPQIEVT [Hsc-8], in series [2], the “Secondary structure composition other” value worked out at 69%, the “Secondary structure composition α-helix” value is listed as 7% and the “Secondary structure composition β-strand” value was determined as 24%. Also, on αSyn fibrils, the “Bound peptides” value turned out to be 1.6 µM, the “Bound peptides (%)” value is given as 0.8% and the “binding to αSyn fibrils (in words)” value is “did not bind”.
Take TKQTQTFTTYSDNQPGVLIQVYE [Hsc-6]: in series [2], the “Secondary structure composition other” value worked out at 80%, the “Secondary structure composition α-helix” value is on record as 0% and the “Secondary structure composition β-strand” value turned out to be 20%. Moreover, on αSyn fibrils, the “Bound peptides” value turned out to be 68 µM, the “Bound peptides (%)” value is 34%, the “binding to αSyn fibrils (in words)” value is recorded as “did bind” and the Kd is greater than 100 µM. In addition, the “effect on αSyn assembly into fibrils” value in the series with monomeric αSyn was “significantly slowed down αSyn assembly into fibrils”.
On to VEDEKLQGKINDED [Hsc-2], for which, in series [2], the “Secondary structure composition other” value worked out at 81%, the “Secondary structure composition α-helix” value is 6% and the “Secondary structure composition β-strand” value is on record as 13%. On αSyn fibrils, the “Bound peptides” value is 1.0 µM, the “Bound peptides (%)” value was determined as 0.5% and the “binding to αSyn fibrils (in words)” value is reported as “did not bind”.
For GILNVSAVDKSTGKENKITITN [Hsc-10], in series [2], the “Secondary structure composition other” value is on record as 41%, the “Secondary structure composition α-helix” value is 46% and the “Secondary structure composition β-strand” value is on record as 13%. For the same molecule, at αSyn fibrils, the “Bound peptides” value was 72 µM, the “Bound peptides (%)” value was determined as 36%, the “binding to αSyn fibrils (in words)” value is reported as “did bind” and the Kd is greater than 100 µM. The “effect on αSyn assembly into fibrils” value in the series with monomeric αSyn is “accelerated aggregation”.
Regarding `CCN(c1nc(N)c(C(=O)N=C(N)N)nc1Cl)C(C)C` [EIPA, l’5-N-ethyl-isopropyl-amiloride], in the series on Neuro-2a cells [1], the “effect of endocytosis inhibitors on αSyn fibrils take-up by Neuro-2a cells” value is “inhibited in a dose-dependent manner”.
Take NMKATVEDEKLQGKINDEDKQKIL [Hsc-3]: in series [2], the “Secondary structure composition other” value is given as 84%, the “Secondary structure composition α-helix” value was found to be 9% and the “Secondary structure composition β-strand” value worked out at 7%. On αSyn fibrils, the “Bound peptides” value was found to be 1.2 µM, the “Bound peptides (%)” value was 0.6% and the “binding to αSyn fibrils (in words)” value is recorded as “did not bind”.
Turning to LTGIPPAPRGVPQIE [Hsc-7], in series [2], the “Secondary structure composition other” value was found to be 73%, the “Secondary structure composition α-helix” value came out at 10% and the “Secondary structure composition β-strand” value was found to be 17%. For the same molecule, at αSyn fibrils, the “Bound peptides” value worked out at 1.2 µM, the “Bound peptides (%)” value was found to be 0.6% and the “binding to αSyn fibrils (in words)” value was “did not bind”.
In the case of FTTYSDNQPGV [Hsc-5], in series [2], the “Secondary structure composition other” value was determined as 85%, the “Secondary structure composition α-helix” value was 0% and the “Secondary structure composition β-strand” value is recorded as 15%. Also, at αSyn fibrils, the “Bound peptides” value came out at 2.8 µM, the “Bound peptides (%)” value is listed as 1.4% and the “binding to αSyn fibrils (in words)” value is reported as “did not bind”.
For the molecule “Hsc70: molecular chaperone Hsc70, recombinant His6-tagged, full-length”, in the series on Neuro-2a cells [3], the “effect on αSyn fibrils binding to Neuro-2a cells” value was “affects αSyn fibrils binding to Neuro-2a cells in a dose-dependent manner”. Also, in the series on fibrillar αSyn [4], the “Hsc70 co-sedimentation with pre-formed αSyn fibrils” value is “pulled into the pellet”. Moreover, the “effect on αSyn fibrils take-up by Neuro-2a cells” value with Neuro-2a cells [1] (αSyn-Alexa488 fibrils 0.5 μM pre-incubated with ligand 0–10 μM in DMEM 30 min 37°C, cells exposed 4 hours, plate reader) is reported as “significantly affected their take-up”. In addition, the Kd in the series with fibrillar αSyn [5] is 0.1 µM.
As for `Cc1cc(N)c2cc(NC(=O)Nc3ccc4nc(C)cc(N)c4c3)ccc2n1` [Surfen, reference compound], on αSyn fibrils, the “Bound peptides” value is 176 µM, the “Bound peptides (%)” value was found to be 88% and the “binding to αSyn fibrils (in words)” value is given as “found to bind to αSyn fibrils”. Besides, the “effect on αSyn fibrils take-up by Neuro-2a cells” value in the series on Neuro-2a cells [1] (ligand 2 or 10 μM with Alexa488-labeled αSyn fibrils 1 μM in DMEM 30 min 37°C, cells exposed 2 hours, 3 independent experiments) was “affected, in a dose-dependent way, their take-up”.
